Earlier results, collected in patent US6709666B2, “Insecticidal mat and heat-transpiration insecticidal method using the same” (Dainihon Jochugiku Co., Ltd., priority 2000, dated 2004).

Conditions: at 20° C.

## C#CC(OC(=O)C1C(C=C(C)C)C1(C)C)/C(C)=C/CC (stereo not shown) [empenthrin]
  vapor pressure: 87 mPa
